Source: patent US6875760B2 (Novo Nordisk A/S, priority 1999, dated 2005)

biological target: T1, human glucagon receptor (Homo sapiens, UniProt P47871); assay: Glucagon Binding Assay (III); settings: BHK cell membranes, WGA SPA beads, 125I-glucagon; read-out: Glu Bd Assay (III) IC50
T1 construct: expressed in transfected cells; host or cells: BHK (baby hamster kidney) cells
Outline: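 Membranes from BHK cells transfected with the human receptor, prepared at 4 °C, were used in a WGA-bead scintillation proximity binding format. Plates were shaken for 4 hours, left to settle 8–48 hours and then counted. Non-specific binding was defined with 500 nM glucagon.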

T1 sequence (P47871 26-477): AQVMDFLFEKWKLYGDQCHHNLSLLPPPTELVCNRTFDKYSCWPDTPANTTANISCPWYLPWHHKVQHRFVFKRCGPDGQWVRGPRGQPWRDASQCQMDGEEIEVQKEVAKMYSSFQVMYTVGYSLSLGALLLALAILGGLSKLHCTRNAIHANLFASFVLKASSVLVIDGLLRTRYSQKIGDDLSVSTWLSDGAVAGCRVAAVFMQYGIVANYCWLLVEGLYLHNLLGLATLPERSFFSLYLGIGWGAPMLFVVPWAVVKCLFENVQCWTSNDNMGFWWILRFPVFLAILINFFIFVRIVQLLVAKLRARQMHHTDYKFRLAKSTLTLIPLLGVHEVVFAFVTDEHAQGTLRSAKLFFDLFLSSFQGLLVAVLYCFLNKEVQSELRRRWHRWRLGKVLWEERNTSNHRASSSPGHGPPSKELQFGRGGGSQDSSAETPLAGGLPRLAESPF

IC50 [nM] | SMILES
103 | CC(C)(C)[C@H]1CC[C@H](N(Cc2ccc(C(=O)NCCC(=O)O)cc2)C(=O)Nc2cc(Cl)c(Cl)c(Cl)c2)CC1 [Example 238, 3-{4-[1-(trans-4-tert-Butylcyclohexyl)-3-(3,4,5-trichlorophenyl)ureidomethyl]benzoylamino}propionic acid]
52 | Cn1nnc(-c2cccc(NC(=O)N(Cc3ccc(C(=O)Nc4nn[nH]n4)cc3)c3ccc(C4CCCCC4)cc3)c2)n1 [Example 371]
821 | CCCCC(CC)CN(Cc1ccc(C(=O)NCCC(=O)O)cc1)C(=O)Nc1cccc(C(=O)OCC)c1 (stereo not drawn) [Example 40, 3-[3-[4-(2-Carboxyethylcarbamoyl)benzyl]-3-(2-ethylhexyl)ureido]benzoic acid ethyl ester]
2110 | CC(C)Oc1ccc(C(=O)N(Cc2ccc(C(=O)NCCC(=O)O)cc2)c2ccc(C3CCCCC3)cc2)cc1 [Example 523, 3-(4-{[(4-Cyclohexylphenyl)-(4-isopropoxybenzoyl)amino]methyl}benzoylamino)propionic acid]
64 | O=C(Nc1nn[nH]n1)c1ccc(CN(C(=O)NCc2ccccc2Br)c2ccc(C3CCCCC3)cc2)cc1 [Example 345, 4-[3-(2-Bromobenzyl)-1-(4-cyclohexylphenyl)ureidomethyl]-N-(2H-tetrazol-5-yl)benzamide]
407 | O=C(O)CCNC(=O)c1ccc(CN(CC(c2ccccc2)c2ccccc2)C(=O)c2cc3cc(Cl)ccc3o2)cc1 [Example 563, 3-(4-{[(5-Chlorobenzofuran-2-carbonyl)-(2,2-diphenylethyl)amino]methyl}benzoylamino)propionic acid]
1120 | CS(=O)(=O)c1ccc(C(=O)N(Cc2ccc(C(=O)Nc3nn[nH]n3)cc2)c2ccc(C3CCCCC3)cc2)cc1 [Example 483, 4-{[(4-Cyclohexylphenyl)-(4-methylsulfonylbenzoyl)amino]methyl}-N-(2H-tetrazol-5-yl)benzamide]
294 | CCC[C@H]1CC[C@@H](N(Cc2ccc(C(=O)NCCC(=O)O)cc2)C(=O)Nc2ccc(OC(F)(F)F)cc2)CC1 [Example 77, 3-{4-[1-(4-cis-Propylcyclohexyl)-3-(4-trifluoromethoxyphenyl)ureidomethyl]benzoylamino}propionic acid]
64 | O=C(Nc1nn[nH]n1)c1ccc(CN(C(=O)NCc2cc(F)cc(C(F)(F)F)c2)c2ccc(C3CCCCC3)cc2)cc1 [Example 270, 4-[1-(4-Cyclohexylphenyl)-3-(3-fluoro-5-trifluoromethylbenzyl)ureidomethyl]-N-(2H-tetrazol-5-yl)benzamide]
177 | CCCC1CCC(N(Cc2ccc(C(=O)NCCC(=O)O)cc2)C(=O)Nc2ccc(OC(F)(F)F)cc2)CC1 (stereo not drawn) [Example 75, 3-{4-[1-(4-Propylcyclohexyl)-3-(4-trifluoromethoxyphenyl)ureidomethyl]benzoylamino}propionic acid]
313 | CN(C)S(=O)(=O)c1cccc(NC(=O)N(Cc2ccc(C(=O)Nc3nn[nH]n3)cc2)c2ccc(C(C)(C)C)cc2)c1 [Example 276, 4-[1-(4-tert-Butylphenyl)-3-(3-dimethylsulfamoylphenyl)ureidomethyl]-N-(2H-tetrazol-5-yl)benzamide]
9 | O=C(Nc1nn[nH]n1)c1ccc(CN(C(=O)Nc2cc(Br)cc(C(F)(F)F)c2)c2ccc(C3CCCCC3)cc2)cc1 [Example 264, 4-[3-(3-Bromo-5-trifluoromethylphenyl)-1-(4-cyclohexylphenyl)ureidomethyl]-N-(2H-tetrazol-5-yl)benzamide]
48 | CCCCOC(=O)c1ccc(NC(=O)N(Cc2ccc(C(=O)NCCC(=O)O)cc2)C2CCC(C(C)(C)C)CC2)cc1 (stereo not drawn) [Example 61, 4-{3-(4-tert-Butylcyclohexyl)-3-[4-(2-carboxyethylcarbamoyl)benzyl]ureido}benzoic acid butyl ester]
28 | CC(C)(C)C1CCC(N(Cc2ccc(C(=O)Nc3nn[nH]n3)cc2)C(=O)Cc2ccc(OC(F)(F)F)cc2)CC1 (stereo not drawn) [Example 502, 4-({(4-tert-Butylcyclohexyl)-[2-(4-trifluoromethoxyphenyl)acetyl]amino}methyl)-N-(2H-tetrazol-5-yl)benzamide]
41 | CN(c1ccccc1)S(=O)(=O)c1cccc(NC(=O)N(Cc2ccc(C(=O)NCCC(=O)O)cc2)c2ccc(C3CCCCC3)cc2)c1 [Example 322, 3-(4-{1-(4-cyclohexylphenyl)-3-[3-(methylphenylsulfamoyl)phenyl]ureidomethyl}benzoylamino)propionic acid]
116 | CCCCN1C(=O)c2ccc(NC(=O)N(Cc3ccc(C(=O)NCCC(=O)O)cc3)C3CCC(C(C)(C)C)CC3)cc2C1=O (stereo not drawn) [Example 637, 3-{4-[1-(4-tert-Butylcyclohexyl)-3-(N′-butylphthalimid-4-yl)ureidomethyl]benzoylamino}propionic acid]
98 | CC(C)(C)C1CCC(N(Cc2ccc(C(=O)Nc3nn[nH]n3)cc2)C(=O)c2ccc(C3CCCCC3)cc2)CC1 (stereo not drawn) [Example 488, 4-{[(4-tert-Butylcyclohexyl)-(4-cyclohexylbenzoyl)amino]methyl}-N-(2H-tetrazol-5-yl)benzamide]
266 | CC(C)(C)C1CCC(N(Cc2ccc(C(=O)NCCC(=O)O)cc2)C(=O)Nc2ccccc2-c2ccccc2)CC1 (stereo not drawn) [Example 28, 3-{4-[3-Biphenyl-2-yl-1-(4-tert-butylcyclohexyl)ureidomethyl]benzoylamino}propionic acid]
1170 | CC(C)(C)[C@H]1CC[C@H](N(Cc2ccc(C(=O)NCCC(=O)O)cc2)C(=O)Nc2cc(-c3ccccc3)n[nH]2)CC1 [Example 253, 3-{4-[1-(4-trans-tert-Butylcyclohexyl)-3-(5-Phenyl-2H-pyrazol-3-yl)ureidomethyl]benzoylamino}propionic acid]
59 | CC(C)C1CCC(N(Cc2ccc(C(=O)NCCC(=O)O)cc2)C(=O)Nc2ccc(OC(F)(F)F)cc2)CC1 (stereo not drawn) [Example 82, 3-{4-[1-(4-Isopropylcyclohexyl)-3-(4-trifluoromethoxyphenyl)ureidomethyl]benzoylamino}propionic acid]
745 | CS(=O)(=O)c1ccc2nc(NC(=O)N(Cc3ccc(C(=O)Nc4nn[nH]n4)cc3)c3ccc(C4CCCCC4)cc3)sc2c1 [Example 616, 4-[1-(4-Cyclohexylphenyl)-3-(6-methylsulfonylbenzothiazol-2-yl)ureidomethyl]-N-(2H-tetrazol-5-yl)benzamide]
385 | CSc1cccc(NC(=O)N(Cc2ccc(C(=O)NCCC(=O)O)cc2)C2CCC(C(C)(C)C)CC2)c1 (stereo not drawn) [Example 26, 3-{4-[1-(4-tert-Butylcyclohexyl)-3-(3-methylsulfanylphenyl)ureidomethyl]benzoylamino}propionic acid]
54 | O=C(Nc1nn[nH]n1)c1ccc(CN(C(=O)Nc2ccc(Cl)c(C(F)(F)F)c2)c2ccc(OC(F)(F)F)cc2)cc1 [Example 284, 4-[3-(4-Chloro-3-trifluoromethylphenyl)-1-(4-trifluoromethoxyphenyl)ureidomethyl]-N-(2H-tetrazol-5-yl)benzamide]
948 | O=C(Nc1nn[nH]n1)c1ccc(CN(C(=O)c2cc(-c3ccc(Cl)cc3)cs2)c2ccc(C3CCCCC3)cc2)cc1 [Example 565, 4-(4-Chlorophenyl)thiophene-2-carboxylic acid (4-cyclohexylphenyl)-[4-(2H-tetrazol-5-ylcarbamoyl)benzyl]amide]
604 | O=C(Nc1nn[nH]n1)c1ccc(CN(C(=O)/C=C/c2ccccc2Cl)c2ccc(N3CCCCC3)cc2)cc1 [Example 555, 4-{[[3-(2-Chlorophenyl)acryloyl]-(4-piperidin-1-ylphenyl)amino]methyl}-N-(2H-tetrazol-5-yl)benzamide]
309 | CC(Oc1cccc(Cl)c1)C(=O)N(Cc1ccc(C(=O)Nc2nn[nH]n2)cc1)C1CCC(C(C)(C)C)CC1 (stereo not drawn) [Example 548, 4-({(4-tert-Butylcyclohexyl)-[2-(3-chlorophenoxy)propionyl]amino}methyl)-N-(2H-tetrazol-5-yl)benzamide]

SMILES | IC50 [nM]
CS(=O)(=O)c1ccc(OC(=O)N(Cc2ccc(C(=O)Nc3nn[nH]n3)cc2)c2ccc(C3CCCCC3)cc2)cc1 [Example 622] | 4600
CC(C)(C)[C@H]1CC[C@H](N(Cc2ccc(C(=O)NCCC(=O)O)cc2)C(=O)Nc2cc(C(F)(F)F)cc(C(F)(F)F)c2)CC1 [Example 100, 3-{4-[3-(3,5-Bis-trifluoromethylphenyl)-1-(trans-4-tert-butylcyclohexyl)ureidomethyl]benzoylamino}propionic acid] | 50
CC(C)(C)c1ccc(N(Cc2ccc(C(=O)NCCC(=O)O)cc2)C(=O)Oc2cc(Cl)cc(Cl)c2)cc1 [Example 409, 3-(4-{[(4-tert-Butylphenyl)-(3,5-dichlorophenoxycarbonyl)amino]methyl}benzoylamino)propionic acid] | 520

same assay, conditions: Glu Bd Assay (III) IC50 (nM), BHK cell membranes, WGA SPA beads, 125I-glucagon

SMILES | IC50 [nM]
CC(C)(C)[C@H]1CC[C@H](N(Cc2ccc(C(=O)NCCC(=O)O)cc2)C(=O)Nc2cc(C(F)(F)F)cc(C(F)(F)F)c2)CC1 [Example 237, 3-{4-[3-(3,5-Bis-trifluoromethylphenyl)-1-(trans-4-tert-butylcyclohexyl)ureidomethyl]benzoylamino}propionic acid] | 56
CC(C)(C)[C@H]1CC[C@H](N(Cc2ccc(C(=O)NCC(=O)NO)cc2)C(=O)Nc2ccc(OC(F)(F)F)cc2)CC1 [Example 377, 4-[1-(trans-4-tert-Butylcyclohexyl)-3-(4-trifluoromethoxyphenyl)ureidomethyl]-N-hydroxycarbamomethyl-benzamide] | 2960
CC(C)(C)[C@H]1CC[C@H](N(Cc2ccc(C(=O)NCCC(=O)O)cc2)C(=O)Nc2cc(Cl)cc(Cl)c2)CC1 [Example 255, 3-{4-[1-(trans-4-tert-Butylcyclohexyl)-3-(3,5-dichlorophenyl)ureidomethyl]benzoylamino}propionic acid] | 80
CC(C)(C)[C@H]1CC[C@H](N(Cc2ccc(C(=O)NCCC(=O)O)cc2)C(=O)Nc2ccccc2)CC1 [Example 243, 3-{4-[1-(trans-4-tert-Butylcyclohexyl)-3-phenylureidomethyl]benzoylamino}propionic acid] | 1090
